# Data taken from patent publication US20070128217A1 (priority 2003, published 2007).
# Tests used:
# [1] = test system: rabbit serum obtained by immunizing a rabbit with the SARS-CoV strain Frankfurt 1; format: binding; parameters: Binding of a rabbit serum to linear peptides / Binding of a rabbit serum to looped peptides / Rabbit serum linear peptides / Rabbit serum looped peptides / Binding of a rabbit serum to linear peptides of protein N of SARS-CoV Urbani (Rabbit serum linear peptides) / Binding of a rabbit serum to looped/cyclic peptides of protein N of SARS-CoV Urbani (Rabbit serum looped peptides): unit not given here
# [2] = test system: control sera (pooled serum of ten healthy LUMC hospital workers; commercial negative donor pooled serum from the Dutch bloodbank); format: binding, human; parameters: Binding of Control serum LUMC to linear peptides / Binding of Control serum Blood-bank to linear peptides / Binding of Control serum LUMC to looped peptides / Binding of Control Serum Blood-Bank to Looped peptides / Binding of Control serum LUMC to linear peptides of the protein M of SARS-CoV Urbani / Binding of Control serum Blood-bank to linear peptides of the protein M of SARS-CoV Urbani / Binding of Control serum LUMC to looped peptides of the protein M of SARS-CoV Urbani / Binding of Control Serum Blood-Bank to Looped peptides of the protein M of SARS-CoV Urbani: unit not given here
# [3] = test system: antibodies in sera from SARS patients (sera 1a, 1b, 2, 6, 37, 62, London, SARS-yellow, SARS-green); format: binding, human; parameters: Binding of serum 6 to linear peptides of protein X1 of SARS-CoV Urbani / Binding of serum 37 to linear peptides of protein X1 of SARS-CoV Urbani / Binding of serum 6 to looped/cyclic peptide (PEPSCAN-ELISA) / Binding of serum 37 to looped/cyclic peptide (PEPSCAN-ELISA) / Binding of serum 37 to looped/cyclic peptides of protein X1 of SARS-CoV Urbani / Binding of serum 6 to linear peptides of protein X2 / Binding of serum 37 to linear peptides of protein X2 / Binding of serum 37 to looped/cyclic peptides of protein X2 of SARS-CoV Urbani / Binding of serum 6 to linear peptides of protein M of SARS-CoV Urbani / Binding of serum 37 to linear peptides of protein M of SARS-CoV Urbani / Binding of serum 6 to looped/cyclic peptides of protein M of SARS-CoV Urbani / Binding of serum 37 to looped/cyclic peptides of protein M of SARS-CoV Urbani / Binding of serum 6 to linear peptides of protein X3 of SARS-CoV Urbani / Binding of serum 37 to linear peptides of protein X3 of SARS-CoV Urbani / Binding of serum 37 to looped/cyclic peptides of protein X3 of SARS-CoV Urbani / Binding of serum 6 to linear peptides of protein X4 of SARS-CoV Urbani / Binding of serum 37 to linear peptides of protein X4 of SARS-CoV Urbani / Binding of serum 37 to looped/cyclic peptides of protein X4 of SARS-CoV Urbani / Binding of serum 6 to linear peptides of protein X5 of SARS-CoV Urbani / Binding of serum 37 to linear peptides of protein X5 of SARS-CoV Urbani / Binding of serum 37 to looped/cyclic peptides of protein X5 of SARS-CoV Urbani / Binding of serum 6 to linear peptides of protein N of SARS-CoV Urbani / Binding of serum 37 to linear peptides of protein N of SARS-CoV Urbani / Binding of serum 6 to linear peptide (PEPSCAN-ELISA) / Binding of serum 1a to looped/cyclic peptides of protein N of SARS-CoV Urbani / Binding of serum 1b to looped/cyclic peptides of protein N of SARS-CoV Urbani / Binding of serum 2 to looped/cyclic peptides of protein N of SARS-CoV Urbani / Binding of serum 6 to looped/cyclic peptides of protein N of SARS-CoV Urbani / Binding of serum 37 to looped/cyclic peptides of protein N of SARS-CoV Urbani / Binding of serum 62 to looped/cyclic peptides of protein N of SARS-CoV Urbani / Binding of serum London to looped/cyclic peptides of protein N of SARS-CoV Urbani / Binding of serum SARS-green to looped/cyclic peptides of protein N of SARS-CoV Urbani: unit not given here
sequence,measurement,setting,value
KIILFLTLIVFTSCE,Rabbit serum linear peptides,[1],0.7
same,Rabbit serum looped peptides,[1],0.9
same,Binding of Control Serum Blood-Bank to Looped peptides,[2],0.8
same,Binding of Control serum Blood-bank to linear peptides,[2],0.8
same,Binding of Control serum LUMC to linear peptides,[2],0.9
same,Binding of Control serum LUMC to looped peptides,[2],0.9
same,Binding of serum 1a to linear peptides of protein X4 of SARS-CoV Urbani,[3],0.8
same,Binding of serum 1a to looped/cyclic peptides of protein X4 of SARS-CoV Urbani,[3],0.9
same,Binding of serum 1b to linear peptides of protein X4 of SARS-CoV Urbani,[3],0.9
same,Binding of serum 1b to looped/cyclic peptides of protein X4 of SARS-CoV Urbani,[3],0.2
same,Binding of serum 2 to linear peptides of protein X4 of SARS-CoV Urbani,[3],0.7
same,Binding of serum 2 to looped/cyclic peptides of protein X4 of SARS-CoV Urbani,[3],0.8
same,Binding of serum 6 to linear peptides of protein X4 of SARS-CoV Urbani,[3],0.7
same,Binding of serum 6 to looped/cyclic peptides of protein X4 of SARS-CoV Urbani,[3],0.6
same,Binding of serum 37 to linear peptides of protein X4 of SARS-CoV Urbani,[3],1.1
same,Binding of serum 37 to looped/cyclic peptides of protein X4 of SARS-CoV Urbani,[3],0.9
same,Binding of serum 62 to linear peptides of protein X4 of SARS-CoV Urbani,[3],0.9
same,Binding of serum 62 to looped/cyclic peptides of protein X4 of SARS-CoV Urbani,[3],0.9
same,Binding of serum London to linear peptides of protein X4 of SARS-CoV Urbani,[3],0.8
same,Binding of serum London to looped/cyclic peptides of protein X4 of SARS-CoV Urbani,[3],0.4
same,Binding of serum SARS-green to linear peptides of protein X4 of SARS-CoV Urbani,[3],0.7
same,Binding of serum SARS-green to looped/cyclic peptides of protein X4 of SARS-CoV Urbani,[3],0.7
same,Binding of serum SARS-yellow to linear peptides of protein X4 of SARS-CoV Urbani,[3],0.9
same,Binding of serum SARS-yellow to looped/cyclic peptides of protein X4 of SARS-CoV Urbani,[3],0.8
KILVRYNTRGNTYST,Rabbit serum linear peptides,[1],0.7
same,Rabbit serum looped peptides,[1],0.4
same,Binding of Control Serum Blood-Bank to Looped peptides,[2],0.5
same,Binding of Control serum Blood-bank to linear peptides,[2],0.8
same,Binding of Control serum LUMC to linear peptides,[2],0.6
same,Binding of Control serum LUMC to looped peptides,[2],0.6
same,Binding of serum 1a to linear peptides of protein X5 of SARS-CoV Urbani,[3],0.7
same,Binding of serum 1a to looped/cyclic peptides of protein X5 of SARS-CoV Urbani,[3],0.5
same,Binding of serum 1b to linear peptides of protein X5 of SARS-CoV Urbani,[3],0.5
same,Binding of serum 1b to looped/cyclic peptides of protein X5 of SARS-CoV Urbani,[3],0.3
same,Binding of serum 2 to linear peptides of protein X5 of SARS-CoV Urbani,[3],0.7
same,Binding of serum 2 to looped/cyclic peptides of protein X5 of SARS-CoV Urbani,[3],0.5
same,Binding of serum 6 to linear peptides of protein X5 of SARS-CoV Urbani,[3],0.7
same,Binding of serum 6 to looped/cyclic peptides of protein X5 of SARS-CoV Urbani,[3],0.5
same,Binding of serum 37 to linear peptides of protein X5 of SARS-CoV Urbani,[3],0.7
same,Binding of serum 37 to looped/cyclic peptides of protein X5 of SARS-CoV Urbani,[3],0.5
same,Binding of serum 62 to linear peptides of protein X5 of SARS-CoV Urbani,[3],0.8
same,Binding of serum 62 to looped/cyclic peptides of protein X5 of SARS-CoV Urbani,[3],0.7
same,Binding of serum London to linear peptides of protein X5 of SARS-CoV Urbani,[3],0.7
same,Binding of serum London to looped/cyclic peptides of protein X5 of SARS-CoV Urbani,[3],0.3
same,Binding of serum SARS-green to linear peptides of protein X5 of SARS-CoV Urbani,[3],0.5
same,Binding of serum SARS-green to looped/cyclic peptides of protein X5 of SARS-CoV Urbani,[3],0.3
same,Binding of serum SARS-yellow to linear peptides of protein X5 of SARS-CoV Urbani,[3],0.1
same,Binding of serum SARS-yellow to looped/cyclic peptides of protein X5 of SARS-CoV Urbani,[3],0.6
KLFIRQEEVQQELYS,Rabbit serum linear peptides,[1],0.5
same,Rabbit serum looped peptides,[1],0.5
same,Binding of Control Serum Blood-Bank to Looped peptides,[2],0.8
same,Binding of Control serum Blood-bank to linear peptides,[2],0.5
same,Binding of Control serum LUMC to linear peptides,[2],0.5
same,Binding of Control serum LUMC to looped peptides,[2],0.8
same,Binding of serum 1a to linear peptides of protein X4 of SARS-CoV Urbani,[3],0.7
same,Binding of serum 1a to looped/cyclic peptides of protein X4 of SARS-CoV Urbani,[3],0.7
same,Binding of serum 1b to linear peptides of protein X4 of SARS-CoV Urbani,[3],0.5
same,Binding of serum 1b to looped/cyclic peptides of protein X4 of SARS-CoV Urbani,[3],0.6
same,Binding of serum 2 to linear peptides of protein X4 of SARS-CoV Urbani,[3],0.4
same,Binding of serum 2 to looped/cyclic peptides of protein X4 of SARS-CoV Urbani,[3],0.6
same,Binding of serum 6 to linear peptides of protein X4 of SARS-CoV Urbani,[3],0.5
same,Binding of serum 6 to looped/cyclic peptides of protein X4 of SARS-CoV Urbani,[3],0.4
same,Binding of serum 37 to linear peptides of protein X4 of SARS-CoV Urbani,[3],0.7
same,Binding of serum 37 to looped/cyclic peptides of protein X4 of SARS-CoV Urbani,[3],0.7
same,Binding of serum 62 to linear peptides of protein X4 of SARS-CoV Urbani,[3],0.8
same,Binding of serum 62 to looped/cyclic peptides of protein X4 of SARS-CoV Urbani,[3],0.6
same,Binding of serum London to linear peptides of protein X4 of SARS-CoV Urbani,[3],0.7
same,Binding of serum London to looped/cyclic peptides of protein X4 of SARS-CoV Urbani,[3],0.3
same,Binding of serum SARS-green to linear peptides of protein X4 of SARS-CoV Urbani,[3],0.6
same,Binding of serum SARS-green to looped/cyclic peptides of protein X4 of SARS-CoV Urbani,[3],0.8
same,Binding of serum SARS-yellow to linear peptides of protein X4 of SARS-CoV Urbani,[3],0.4
same,Binding of serum SARS-yellow to looped/cyclic peptides of protein X4 of SARS-CoV Urbani,[3],0.6
KLLQTLVLKMLHSSS,Binding of a rabbit serum to linear peptides,[1],0.2
same,Binding of a rabbit serum to looped peptides,[1],0.4
same,Binding of Control Serum Blood-Bank to Looped peptides,[2],0.7
same,Binding of Control serum Blood-bank to linear peptides,[2],0.7
same,Binding of Control serum LUMC to linear peptides,[2],0.3
same,Binding of Control serum LUMC to looped peptides,[2],0.6
same,Binding of serum 1a to linear peptides of protein X2,[3],0.6
same,Binding of serum 1a to looped/cyclic peptides of protein X2 of SARS-CoV Urbani,[3],0.5
same,Binding of serum 1b to linear peptides of protein X2,[3],0.6
same,Binding of serum 1b to looped/cyclic peptides of protein X2 of SARS-CoV Urbani,[3],0.5
same,Binding of serum 2 to linear peptides of protein X2,[3],0.4
same,Binding of serum 2 to looped/cyclic peptides of protein X2 of SARS-CoV Urbani,[3],0.3
same,Binding of serum 6 to linear peptides of protein X2,[3],0.3
same,Binding of serum 6 to looped/cyclic peptides of protein X2 of SARS-CoV Urbani,[3],0.5
same,Binding of serum 37 to linear peptides of protein X2,[3],0.5
same,Binding of serum 37 to looped/cyclic peptides of protein X2 of SARS-CoV Urbani,[3],0.4
same,Binding of serum 62 to linear peptides of protein X2,[3],0.6
same,Binding of serum 62 to looped/cyclic peptides of protein X2 of SARS-CoV Urbani,[3],0.6
same,Binding of serum London to linear peptides of protein X2,[3],0.4
same,Binding of serum London to looped/cyclic peptides of protein X2 of SARS-CoV Urbani,[3],0.4
same,Binding of serum SARS-green to linear peptides of protein X2,[3],0.5
same,Binding of serum SARS-green to looped/cyclic peptides of protein X2 of SARS-CoV Urbani,[3],0.3
same,Binding of serum SARS-yellow to linear peptides of protein X2,[3],0.4
same,Binding of serum SARS-yellow to looped/cyclic peptides of protein X2 of SARS-CoV Urbani,[3],0.4
KNPLLYDANYFVCWH,Binding of a rabbit serum to linear peptides,[1],0.1
same,Binding of a rabbit serum to looped peptides,[1],0.7
same,Binding of Control Serum Blood-Bank to Looped peptides,[2],0.6
same,Binding of Control serum Blood-bank to linear peptides,[2],0.4
same,Binding of Control serum LUMC to linear peptides,[2],0.4
same,Binding of Control serum LUMC to looped peptides,[2],0.7
same,Binding of serum 1a to linear peptides of protein X1 of SARS-CoV Urbani,[3],0.8
same,Binding of serum 1a to looped/cyclic peptide (PEPSCAN-ELISA),[3],0.6
same,Binding of serum 1b to linear peptides of protein X1 of SARS-CoV Urbani,[3],0.5
same,Binding of serum 1b to looped/cyclic peptide (PEPSCAN-ELISA),[3],0.5
same,Binding of serum 2 to linear peptides of protein X1 of SARS-CoV Urbani,[3],0.5
same,Binding of serum 2 to looped/cyclic peptide (PEPSCAN-ELISA),[3],0.4
same,Binding of serum 6 to linear peptides of protein X1 of SARS-CoV Urbani,[3],0.4
same,Binding of serum 6 to looped/cyclic peptide (PEPSCAN-ELISA),[3],0.4
same,Binding of serum 37 to linear peptides of protein X1 of SARS-CoV Urbani,[3],0.6
same,Binding of serum 37 to looped/cyclic peptide (PEPSCAN-ELISA),[3],0.6
same,Binding of serum 62 to linear peptides of protein X1 of SARS-CoV Urbani,[3],0.5
same,Binding of serum 62 to looped/cyclic peptide (PEPSCAN-ELISA),[3],0.6
same,Binding of serum London to linear peptides of protein X1 of SARS-CoV Urbani,[3],0.3
same,Binding of serum London to looped/cyclic peptide (PEPSCAN-ELISA),[3],0.2
same,Binding of serum SARS-green to linear peptides of protein X1 of SARS-CoV Urbani,[3],0.4
same,Binding of serum SARS-green to looped/cyclic peptide (PEPSCAN-ELISA),[3],0.3
same,Binding of serum SARS-yellow to linear peptides of protein X1 of SARS-CoV Urbani,[3],0.3
same,Binding of serum SARS-yellow to looped/cyclic peptide (PEPSCAN-ELISA),[3],0.4
